What was measured:
IRAK4 [1] = biological target: T1, IRAK4 (Homo sapiens, UniProt Q9NWZ3); assay: RBC HotSpot Kinase Assay, IRAK4; type: biochemical; set-up: purchased Reaction Biology (RBC HotSpot Kinase Assay)
T1 sequence (Q9NWZ3 1-460): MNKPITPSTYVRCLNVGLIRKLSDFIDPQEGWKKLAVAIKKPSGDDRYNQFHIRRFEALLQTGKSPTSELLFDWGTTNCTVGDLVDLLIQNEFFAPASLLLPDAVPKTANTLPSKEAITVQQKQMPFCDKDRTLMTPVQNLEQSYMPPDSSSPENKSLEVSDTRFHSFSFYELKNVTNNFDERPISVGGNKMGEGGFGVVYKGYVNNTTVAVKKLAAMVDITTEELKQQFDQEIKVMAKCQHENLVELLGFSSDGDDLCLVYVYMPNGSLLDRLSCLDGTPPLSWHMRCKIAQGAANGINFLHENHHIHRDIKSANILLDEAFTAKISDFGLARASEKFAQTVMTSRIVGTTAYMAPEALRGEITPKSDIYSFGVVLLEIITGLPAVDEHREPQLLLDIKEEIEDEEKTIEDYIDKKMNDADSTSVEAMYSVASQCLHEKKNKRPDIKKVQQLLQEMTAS
Outline: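 Radiometric filter-binding (HotSpot) activity assay on isolated recombinant kinase, possibly truncated or catalytic domain only, in 20 mM Hepes pH 7.5, 10 mM MgCl2, 1 mM EGTA, 2 mM DTT, 1% DMSO. Compound preincubated 20 min with kinase and substrate, then ^33P-ATP added. Reaction 2 h at room temperature, read by P81 filter binding.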

IRAK4 [2] = biological target: T1, IRAK4; assay: Reaction Biology NanoBRET target engagement assay, IRAK4; type: cell-based; conditions: transfected HEK-293 cells
Text: The NanoBRET assay measures kinase engagement in real time in the context of the intact cell. Unlike the previously described biochemical kinase assay methodologies in Examples 26-27, the NanoBRET assay measures the binding and activity characteristics under equilibrium conditions using full-length kinases in the presence of cellular concentrations of ATP in live, uncompromised cells. As such, the assay provides a more relevant assessment of kinase potency and selectivity that would be expected to be observed in the native cellular environment, where potency is often considerably lower than that observed in the isolated biochemical assays (Vasta, J. D. et al., (2018) Cell Chem. Biol. 25, 206-214). The assay uses a Kinase-NanoLuc® fusion vector expressing a kinase protein to which a luciferase tag has been added, a cell-permeant fluorescent NanoBRET™ tracer, a NanoLuc® substrate, and an extracellular NanoLuc® inhibitor. Upon expression of the luciferase-tagged kinase, cells will produce a strong BRET signal only in the presence of the NanoBRET™ tracer. The extracellular NanoLuc® inhibitor ensures that the BRET signal observed emanates only from live cells. Because the BRET signal has tight distance constraints, addition of the test compound will decrease the BRET signal if the compound competes with the NanoBRET™ tracer for binding to the kinase domain. Under the appropriate tracer conditions established by the manufacturer, quantitative intracellular affinity and relative potency can then be determined using Mass Action model equations.
HEK-293 cells were purchased from ATCC. FuGENEHD Transfection Reagent, Kinase-NanoLucfusion plasmids, Transfection Carrier DNA, NanoBRETTracers and dilution buffer, NanoBRETNano-Glo Substrate, Extracellular NanoLucInhibitor were obtained from Promega.
Assays were conducted following Promega assay protocol with some modifications. HEK-293 Cells were transiently transfected with Kinase-NanoLucFusion Vector DNA by FuGENEHD Transfection Reagent. Testing compounds were delivered into 384 well assay plate by Echo 550 (LabcyteInc, Sunnyvale, CA). Transfected cells were harvested and mixed with NanoBRETTracer Reagent and dispensed into 384 well plates and incubated at 37° C. in 5% CO2 cell culture incubator for 1 hour. The NanoBRETNano-Glo Substrate plus Extracellular NanoLucInhibitor Solution were added into the wells of the assay plate and incubated for 2-3 minutes at room temperature. The donor emission wavelength (460 nm) and acceptor emission wavelength (600 nm) were measured in the EnVisionplate reader. The BRET Ratios were calculated. BRET Ratio=[(Acceptor sample÷Donor sample)−(Acceptor no-tracer control÷Donor no-tracer control)]. The IC50 values of compounds were calculated with Prism GraphPad program.
• 1). Cultivate HEK-293 cells (70-80% confluence) appropriately prior to assay. Trypsinize and collect HEK-293 cells. • 2). Prepare lipid: DNA complexes as follows: • a. Prepare a 10 μg/ml solution of DNA in Opti-MEM without serum that consists of the following ratios of carrier DNA and DNA encoding NanoLuc® fusion. 9.0 μg/mL of Transfection Carrier DNA, 1.0 μg/mL of NanoLuc fusion vector DNA and 1 mL of Opti-MEM without phenol red. Mix thoroughly. • b. Add 30 μl of FuGENE HD Transfection Reagent into each milliliter of DNA mixture to form lipid:DNA complex. • c. Mix by inversion 10 times. • d. Incubate at ambient temperature for 20 minutes to allow complexes to form. • 3). In a sterile, conical tube, mix 1 part of lipid:DNA complex with 20 parts of HEK-293 cells in suspension. Mix gently by inversion 5 times. • 4). Dispense cells+lipid:DNA complex into a sterile tissue culture dish and incubate for 22-24 hours. 2. Addition of Test Compounds (Dry Plate Shooting)
Each test compound is delivered from the compound source plate to the wells of 384-well white NBS plate by Echo 550.
• 1). […]

SMILES	IC50 (IRAK4 [1]) [nM]	IC50 (IRAK4 [2]) [nM]
COc1cc2ncc(-c3nc(N[C@H]4CNCC[C@@H]4F)c(F)cc3F)n2nc1C(C)(C)O [Compound 128, 2-(3-(3,5-difluoro-6-(((3S,4S)-4-fluoropiperidin-3-yl)amino)pyridin-2-yl)-7-methoxyimidazo[1,2-b]pyridazin-6-yl)propan-2-ol]	6	15
COc1cc2ncc(-c3nc(N[C@H]4CNCC[C@@H]4F)c(F)cc3F)n2nc1C1CC1 [Compound 108, 6-(6-cyclopropyl-7-methoxyimidazo[1,2-b]pyridazin-3-yl)-3,5-difluoro-N-((3S,4S)-4-fluoropiperidin-3-yl)pyridin-2-amine]	0.6	< 0.5
COc1cc2ncc(-c3cccc(N[C@H]4CNC[C@@H]4C(F)(F)F)n3)n2nc1C1CC1 [Compound 99, 6-(6-cyclopropyl-7-methoxyimidazo[1,2-b]pyridazin-3-yl)-N-((3R,4S)-4-(trifluoromethyl)pyrrolidin-3-yl)pyridin-2-amine]	0.5	3
c1cc(N[C@@H]2CCCNC2)nc(-c2cnc3ccc(-c4cnn5ccccc45)nn23)c1 [Compound 19, (R)-N-(piperidin-3-yl)-6-(6-(pyrazolo[1,5-a]pyridin-3-yl)imidazo[1,2-b]pyridazin-3-yl)pyridin-2-amine]	3	511
COc1cc2ncc(-c3nc(N[C@@H]4CCCNC4)c(F)cc3F)n2nc1C(C)(C)O [Compound 127, (R)-2-(3-(3,5-difluoro-6-(piperidin-3-ylamino)pyridin-2-yl)-7-methoxyimidazo[1,2-b]pyridazin-6-yl)propan-2-ol]	16	30
COc1cc2ncc(-c3cccc(N[C@@H]4CCNC4)n3)n2nc1C1CC1 [Compound 97, (R)-6-(6-cyclopropyl-7-methoxyimidazo[1,2-b]pyridazin-3-yl)-N-(pyrrolidin-3-yl)pyridin-2-amine]	2	–
COc1cc2ncc(-c3cccc(N[C@H]4CNC[C@@H]4F)n3)n2nc1C1CC1 [Compound 96, 6-(6-cyclopropyl-7-methoxyimidazo[1,2-b]pyridazin-3-yl)-N-((3S,4S)-4-fluoropyrrolidin-3-yl)pyridin-2-amine]	3	2
COc1cc2ncc(-c3nc(N[C@H]4CNC[C@@H]4F)c(F)cc3F)n2nc1C1CC1 [Compound 107, 6-(6-cyclopropyl-7-methoxyimidazo[1,2-b]pyridazin-3-yl)-3,5-difluoro-N-((3S,4S)-4-fluoropyrrolidin-3-yl)pyridin-2-amine]	< 0.5	< 0.5
COc1cc2ncc(-c3cccc(N[C@H]4CNCC[C@@H]4F)n3)n2nc1C1CC1 [Compound 102, 6-(6-cyclopropyl-7-methoxyimidazo[1,2-b]pyridazin-3-yl)-N-((3S,4S)-4-fluoropiperidin-3-yl)pyridin-2-amine]	1	2
COc1cc2ncc(-c3nc(N[C@H]4CNC[C@@H]4F)c(F)cc3F)n2nc1C(C)(C)O [Compound 126, 2-(3-(3,5-difluoro-6-(((3S,4S)-4-fluoropyrrolidin-3-yl)amino)pyridin-2-yl)-7-methoxyimidazo[1,2-b]pyridazin-6-yl)propan-2-ol]	4	7
COc1cc2ncc(-c3cccc(N[C@H]4CNC[C@@H]4F)n3)n2nc1C(C)(O)C(F)(F)F (single isomer, unassigned; fast-eluting) [Compound 133]	< 0.5	98
F[C@H]1CNC[C@@H]1Nc1cccc(-c2cnc3ccc(-c4cnn5ccccc45)nn23)n1 [Compound 9, N-((3S,4S)-4-fluoropyrrolidin-3-yl)-6-(6-(pyrazolo[1,5-a]pyridin-3-yl)imidazo[1,2-b]pyridazin-3-yl)pyridin-2-amine]	7	54
COc1cc2ncc(-c3nc(N[C@@H]4CCCNC4)c(F)cc3F)n2nc1C1CC1 [Compound 106, (R)-6-(6-cyclopropyl-7-methoxyimidazo[1,2-b]pyridazin-3-yl)-3,5-difluoro-N-(piperidin-3-yl)pyridin-2-amine]	0.8	< 0.5

From patent publication US12534469B2 (CHILDREN'S HOSPITAL MEDICAL CENTER, priority 2020, dated 2026)
